Several values for one entry are separate records, joined by “and”; a condition that tells them apart may be missing. Equal entries are not always repeated. Inconclusive results and toxic doses are left out.
Test system: P388 leukemia ip, CD2F1 mice, survival T/C
Test: NCI In Vivo Anticancer Drug Screen. Data for tumor model P388 Leukemia (intraperitoneal) in CD2F1 (CDF1) mice
Conditions: endpoint: median survival time, higher = longer survival
Summary of the method: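 Mice carrying the transplanted tumor received test compound or vehicle. Survival was recorded in each group, and the value is the treated-group measurement divided by that of the vehicle-treated control group.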

[1] = dose: 50.0 mg/kg/injection, schedule: Q01DX005 (ip), vehicle: saline with Tween-80
[2] = dose: 100.0 mg/kg/injection, schedule: Q01DX005 (ip), vehicle: saline with Tween-80
[3] = dose: 200.0 mg/kg/injection, schedule: Q01DX005 (ip), vehicle: saline with Tween-80
[4] = dose: 50.0 mg/kg/injection, schedule: Q01DX009 (ip), vehicle: Klucel (hydroxypropylcellulose) (HPC)
[5] = dose: 60.0 mg/kg/injection, schedule: Q01DX005 (ip), vehicle: saline with Tween-80
[6] = dose: 120.0 mg/kg/injection, schedule: Q01DX005 (ip), vehicle: saline with Tween-80
[7] = dose: 240.0 mg/kg/injection, schedule: Q01DX005 (ip), vehicle: saline with Tween-80
[8] = dose: 25.0 mg/kg/injection, schedule: Q01DX009 (ip), vehicle: saline with Tween-80
[9] = dose: 50.0 mg/kg/injection, schedule: Q01DX009 (ip), vehicle: saline with Tween-80
[10] = dose: 12.5 mg/kg/injection, schedule: Q01DX005 (ip), vehicle: Klucel (hydroxypropylcellulose) (HPC)
[11] = dose: 25.0 mg/kg/injection, schedule: Q01DX005 (ip), vehicle: Klucel (hydroxypropylcellulose) (HPC)
[12] = dose: 50.0 mg/kg/injection, schedule: Q01DX005 (ip), vehicle: Klucel (hydroxypropylcellulose) (HPC)
[13] = dose: 100.0 mg/kg/injection, schedule: Q01DX009 (ip), vehicle: Klucel (hydroxypropylcellulose) (HPC)
[14] = dose: 200.0 mg/kg/injection, schedule: Q01DX009 (ip), vehicle: Klucel (hydroxypropylcellulose) (HPC)
[15] = dose: 100.0 mg/kg/injection, schedule: Q01DX009 (ip), vehicle: saline with Tween-80
[16] = dose: 100.0 mg/kg/injection, schedule: Q01DX005 (ip), vehicle: Klucel (hydroxypropylcellulose) (HPC)
[17] = dose: 200.0 mg/kg/injection, schedule: Q01DX005 (ip), vehicle: Klucel (hydroxypropylcellulose) (HPC)
[18] = dose: 200.0 mg/kg/injection, schedule: Q01DX009 (ip), vehicle: saline with Tween-80
[19] = dose: 100.0 mg/kg/injection, schedule: Q04DX003 (ip), vehicle: saline
[20] = dose: 200.0 mg/kg/injection, schedule: Q04DX003 (ip), vehicle: saline
[21] = dose: 400.0 mg/kg/injection, schedule: Q04DX003 (ip), vehicle: saline

With O=C(CCC(=O)Nc1cc(Cl)ccc1Cl)CC(=O)c1ccc(Cl)cc1 the T/C (dose: 60.0 mg/kg/injection, schedule: Q01DX005 (ip), vehicle: saline) was 109 % of control, the T/C (dose: 120.0 mg/kg/injection, schedule: Q01DX005 (ip), vehicle: saline) was 106 % of control and the T/C (dose: 240.0 mg/kg/injection, schedule: Q01DX005 (ip), vehicle: saline) was 109 % of control.
For CC(=O)c1ccc2ccccc2n1, the T/C (dose: 25.0 mg/kg/injection, schedule: Q01DX009 (ip), vehicle: other) was 102 % of control, the T/C (dose: 50.0 mg/kg/injection, schedule: Q01DX009 (ip), vehicle: other) was 105 % of control and the T/C (dose: 100.0 mg/kg/injection, schedule: Q01DX009 (ip), vehicle: other) was 111 % of control. For the same compound, the T/C (dose: 200.0 mg/kg/injection, schedule: Q01DX009 (ip), vehicle: other) was 114 % of control and the T/C (dose: 400.0 mg/kg/injection, schedule: Q01DX009 (ip), vehicle: other) was 114 % of control.
For CCN=C1NS(=O)(=O)c2ccccc21, the T/C [1] was 100 % of control, the T/C [2] was 97 % of control and the T/C [3] was 100 % of control.
In the case of COc1ccc(/C=N\NC(=O)C(=O)N/N=C\c2ccc(OC)c(OC)c2)cc1OC, the T/C (dose: 12.5 mg/kg/injection, schedule: Q01DX009 (ip), vehicle: Klucel (hydroxypropylcellulose) (HPC)) is reported as 93 % of control, the T/C (dose: 25.0 mg/kg/injection, schedule: Q01DX009 (ip), vehicle: Klucel (hydroxypropylcellulose) (HPC)) is reported as 93 % of control and the T/C [4] is reported as 86 % of control and 88 % of control.
In the case of N#Cc1ccc(OC(=O)Nc2ccccc2Cl)cc1, the T/C [5] is reported as 94 % of control, the T/C [6] is reported as 95 % of control and the T/C [7] is reported as 86 % of control.
COc1ccc2nccc(NCCCN3CCN(CCCNc4ccnc5ccc(OC)cc45)CC3)c2c1 was tested, and the T/C (dose: 3.75 mg/kg/injection, schedule: Q01DX005 (ip), vehicle: water) was 104 % of control, the T/C (dose: 7.5 mg/kg/injection, schedule: Q01DX005 (ip), vehicle: water) was 107 % of control and the T/C (dose: 15.0 mg/kg/injection, schedule: Q01DX005 (ip), vehicle: water) was 99 % of control.
Clc1ccc(-n2cnn3c(-c4ccccc4)ncc23)cc1 was tested, and the T/C (dose: 100.0 mg/kg/injection, schedule: Q04DX002 (ip), vehicle: saline with Tween-80) was 90 % of control, the T/C (dose: 200.0 mg/kg/injection, schedule: Q04DX002 (ip), vehicle: saline with Tween-80) was 87 % of control and the T/C (dose: 400.0 mg/kg/injection, schedule: Q04DX002 (ip), vehicle: saline with Tween-80) was 93 % of control.
With COc1cc(Cl)c(CC(=O)c2c[nH]c3ccccc23)cc1OC the T/C (dose: 6.25 mg/kg/injection, schedule: Q01DX009 (ip), vehicle: saline with Tween-80) was 94 % of control, the T/C (dose: 12.5 mg/kg/injection, schedule: Q01DX009 (ip), vehicle: saline with Tween-80) was 92 % of control and the T/C [8] was 100 % of control. The T/C [9] was 93 % of control.
With Cc1nn(-c2ccccc2)c(N)c1C#N the T/C (dose: 50.0 mg/kg/injection, schedule: Q04DX003 (ip), vehicle: Klucel (hydroxypropylcellulose) (HPC)) was 104 % of control, the T/C (dose: 100.0 mg/kg/injection, schedule: Q04DX003 (ip), vehicle: Klucel (hydroxypropylcellulose) (HPC)) was 107 % of control and the T/C (dose: 200.0 mg/kg/injection, schedule: Q04DX003 (ip), vehicle: Klucel (hydroxypropylcellulose) (HPC)) was 106 % of control. For the same compound, the T/C (dose: 400.0 mg/kg/injection, schedule: Q04DX003 (ip), vehicle: Klucel (hydroxypropylcellulose) (HPC)) was 104 % of control.
O=C1C2CC34CCCN5CC1C1(c6ccccc6NC21CC3)C54 (stereo not given) was tested, and the T/C [10] was 103 % of control, the T/C [11] was 98 % of control and the T/C [12] was 103 % of control.
In the case of Cc1nn(C(=O)c2ccncc2)c(C)c1N=Nc1ccc(S(=O)(=O)Nc2ccccn2)cc1, the T/C [4] is reported as 100 % of control, the T/C [13] is reported as 91 % of control and the T/C [14] is reported as 92 % of control.
For CCc1nc2nc(C)cc(C)n2n1, the T/C [8] was 100 % of control, the T/C [9] was 97 % of control and the T/C [15] was 103 % of control.
CNc1cc(NC)c2c(c1N)C(=O)c1ccccc1C2=O was tested, and the T/C (dose: 50.0 mg/kg/injection, schedule: Q04DX002 (ip), vehicle: Klucel (hydroxypropylcellulose) (HPC)) was 103 % of control, the T/C (dose: 100.0 mg/kg/injection, schedule: Q04DX002 (ip), vehicle: Klucel (hydroxypropylcellulose) (HPC)) was 100 % of control and the T/C (dose: 200.0 mg/kg/injection, schedule: Q04DX002 (ip), vehicle: Klucel (hydroxypropylcellulose) (HPC)) was 101 % of control.
In the case of CCCCCCC(=O)/C=C/c1ccccc1OC(=O)/C=C/c1ccccc1, the T/C (dose: 50.0 mg/kg/injection, schedule: Q01DX005 (ip), vehicle: saline + alcohol) is reported as 96 % of control and the T/C (dose: 100.0 mg/kg/injection, schedule: Q01DX005 (ip), vehicle: saline + alcohol) is reported as 92 % of control.
COc1cc([N+](=O)[O-])c(S(=O)(=O)O)cc1N=N/C=N/Nc1cc(S(=O)(=O)O)c([N+](=O)[O-])cc1OC was tested, and the T/C [12] was 118 % of control, the T/C [16] was 110 % of control and the T/C [17] was 108 % of control.
CC1(CCl)Nc2ccccc2C(=O)N1c1ccc(F)cc1 (stereo not given) was tested, and the T/C [9] was 103 % of control, the T/C [15] was 95 % of control and the T/C [18] was 95 % of control.
In the case of NC(=S)N/N=C/C1=C(Cl)c2ccccc2C1, the T/C (dose: 6.25 mg/kg/injection, schedule: Q01DX005 (ip), vehicle: saline with Tween-80) is reported as 109 % of control and the T/C (dose: 12.5 mg/kg/injection, schedule: Q01DX005 (ip), vehicle: saline with Tween-80) is reported as 119 % of control.
With O[C@]12C=C[C@H](CCCC1)O2 the T/C [1] was 107 % of control, the T/C [2] was 108 % of control and the T/C [3] was 111 % of control.
For C[CH2][Ge]([CH2]C)[O][Ge]([CH2]C)[CH2]C.c1cc[c]([Ge]([c]2ccccc2)[c]2ccccc2)cc1.c1cc[c]([Ge]([c]2ccccc2)[c]2ccccc2)cc1, the T/C [5] was 88 % of control, the T/C [6] was 98 % of control and the T/C [7] was 98 % of control.
For CC(=O)C1=C(C)NC(C)=C(C(C)=O)C1c1ccccc1, the T/C [15] was 100 % of control, the T/C [18] was 100 % of control and the T/C (dose: 400.0 mg/kg/injection, schedule: Q01DX009 (ip), vehicle: saline with Tween-80) was 90 % of control.
In the case of CNC(=O)N(C)N=NCCCl, the T/C [1] is reported as 175 % of control, the T/C (dose: 52.5 mg/kg/injection, schedule: Q01DX005 (ip), vehicle: saline with Tween-80) is reported as 161 % of control and the T/C [2] is reported as 196 % of control. The T/C (dose: 105.0 mg/kg/injection, schedule: Q01DX005 (ip), vehicle: saline with Tween-80) was 181 % of control, the T/C [3] was 297 % of control and the T/C (dose: 210.0 mg/kg/injection, schedule: Q01DX005 (ip), vehicle: saline with Tween-80) was 297 % of control. For the same compound, the T/C (dose: 400.0 mg/kg/injection, schedule: Q01DX005 (ip), vehicle: saline with Tween-80) was 99 % of control.
In the case of O=C1CSC(c2ccsc2)N1c1nncs1 (stereo not given), the T/C (dose: 60.0 mg/kg/injection, schedule: Q01DX005 (ip), vehicle: Klucel (hydroxypropylcellulose) (HPC)) is reported as 101 % of control, the T/C (dose: 120.0 mg/kg/injection, schedule: Q01DX005 (ip), vehicle: Klucel (hydroxypropylcellulose) (HPC)) is reported as 100 % of control and the T/C (dose: 240.0 mg/kg/injection, schedule: Q01DX005 (ip), vehicle: Klucel (hydroxypropylcellulose) (HPC)) is reported as 108 % of control.
For CC(C)(C)OC(=O)NC1CCC2CCCCC2C1 (stereo not given), the T/C [19] was 100 % of control, the T/C [20] was 104 % of control and the T/C [21] was 100 % of control.
For C(=N\N1CN(/N=C/c2ccccc2)C(c2ccccc2)C1c1ccccc1)/c1ccccc1 (stereo not given), the T/C [10] was 89 % of control, the T/C [11] was 99 % of control and the T/C [12] was 99 % of control and 97 % of control. For the same compound, the T/C [16] was 99 % of control and the T/C [17] was 108 % of control.
In the case of CS(=O)(=O)c1cc(C(F)(F)F)cc([N+](=O)[O-])c1Cl, the T/C [8] is reported as 109 % of control and the T/C [9] is reported as 100 % of control.
CC(=O)OC1COC(n2cnc3c(Cl)nc(Cl)nc32)C(OC(C)=O)C1OC(C)=O (stereo not given) was tested, and the T/C [12] was 107 % of control and the T/C [16] was 108 % of control.
O=C(NCCCCCCNC(=O)OCOC(=O)NCCCCCCNC(=O)Nc1ccc(SCCO)cc1)Nc1ccc(SCCO)cc1 was tested, and the T/C [19] was 102 % of control, the T/C [20] was 102 % of control and the T/C [21] was 99 % of control.
In the case of O=C1CC2(CCCCC2)C(=O)N1c1ccc(S(=O)(=O)NC(=S)Nc2ccc(Br)cc2)cc1, the T/C [4] is reported as 98 % of control, the T/C [13] is reported as 95 % of control and the T/C [14] is reported as 104 % of control.

Source: PubChem BioAssay AID330 (DTP/NCI, 2004)
